Here are results for two molecules from article PMC11580958 (bioRxiv, 2024).

Residues, ends and D or L forms follow the SMILES beside them. *: point of attachment. Cbz = O=C(OCc1ccccc1)*

Test [1] deals with BMDCs. In words: […] antigen presentation on DCs. The format is cell-based, C57BL/6 mouse. The following applies: CpG adjuvant, treatment 12-24 h, flow cytometry. For orientation: A flow cytometer gives signals particle by particle.
In test [2] the target is CRBN protein (Homo sapiens, UniProt Q96SW2). The test is described as follows: Nano ITC measurement of PROTAV-CRBN binding. The following applies: data did not fit the binding model. For orientation: In ITC the heat of successive injections is recorded.
Chain of CRBN protein (Q96SW2 whole entry, species assumed): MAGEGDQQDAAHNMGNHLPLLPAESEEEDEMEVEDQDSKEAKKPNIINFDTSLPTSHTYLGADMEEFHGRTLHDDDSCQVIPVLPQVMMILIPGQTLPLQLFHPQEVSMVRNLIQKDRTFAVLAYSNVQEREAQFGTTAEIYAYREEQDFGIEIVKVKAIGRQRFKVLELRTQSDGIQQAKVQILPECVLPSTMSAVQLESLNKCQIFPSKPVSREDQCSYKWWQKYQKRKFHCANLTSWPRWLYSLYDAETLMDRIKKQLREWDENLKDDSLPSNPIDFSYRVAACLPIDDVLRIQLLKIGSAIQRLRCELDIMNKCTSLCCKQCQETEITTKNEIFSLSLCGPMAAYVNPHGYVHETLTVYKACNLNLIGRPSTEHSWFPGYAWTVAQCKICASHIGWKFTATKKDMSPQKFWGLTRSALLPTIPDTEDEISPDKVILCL

As for `CC(C)C[C@@H](C=O)NC(=O)[C@H](CC(C)C)NC(=O)[C@H](CC(C)C)NC(=O)OCc1ccccc1` [MG132] (Cbz-Leu-Leu-Leu-aldehyde), in test [1], the “H-2Kb/SIINFEKL presentation on DCs (in words)” value is “reduced the level of SIINFEKL presentation on DCs”.

B1: chicken ovalbumin (protein)
chain: MGSIGAASMEFCFDVFKELKVHHANENIFYCPIAIMSALAMVYLGAKDSTRTQINKVVRFDKLPGFGDSIEAQCGTSVNVHSSLRDILNQITKPNDVYSFSLASRLYAEERYPILPEYLQCVKELYRGGLEPINFQTAADQARELINSWVESQTNGIIRNVLQPSSVDSQTAMVLVNAIVFKGLWEKAFKDEDTQAMPFRVTEQESKPVQMMYQIGLFRVASMASEKMKILELPFASGTMSMLVLLPDEVSGLEQLESIINFEKLTEWTSSNVMEERKIKVYLPRMKMEEKYNLTSVLMAMGITDVFSSSANLSGISSAESLKISQAVHAAHAEINEAGREVVGSAEAGVDAASVSEEFRADHPFLFCIKHIATNAVLFFGRCVSP
B1: the “Binding to CRBN (in words)” value in test [2] is “negligible binding”.
